Test results taken from patent publication US9925398B2, “Angiogenic peptide” (NOVACELL TECHNOLOGY INC., priority 2008, dated 2018).
Where a SMILES comes first, the peptide text is derived from it. [ ]: non-standard residue; d: D form.

System: MS-1 cells
Assay: Suppression of SFKLRY-NH2-induced [Ca2+]i increase in MS-1 cells by inhibitors
Type: cell-based, murine
Settings: 100 ng/mL for 2 h prior to SFKLRY-NH2
Protocol: FIGS. 3A-3B show BAPTA, U73122 and PTX suppressed SFKLRY-NH2-induced [Ca^2+]i increase in MS-1 cells. […] (A) The cells were pre-incubated in DMEM containing 10 μM BAPTA-AM with Fluo-4/AM for 30 min at 37° C. Cells were suspended in Ca^2+-free Locke's solution containing 0.2 mM EGTA and treated with indicated concentrations of SFKLRY-NH2 (SEQ ID NO: 2). The change in fluorescence intensity was determined with excitation at 488 nm and the emission at 520 nm. (B) Cells were preincubated with or without U73122 (10 μM), U73433 (10 μM) for 30 min, and PTX (100 ng/mL) for 2 h with Fura-2, respectively. Fura-2-loaded cells were then suspended in Ca^2+-free Locke's solution and then treated with 1 μM SFKLRY-NH2 (SEQ ID NO: 2). The data are represent means±3 independent experiments each performed in triplicate. *P<0.05.

| Compound | effect on peptide-dependent intracellular Ca2+ mobilization |
| --- | --- |
| Pertussis toxin [PTX] | remarkably attenuated |

Same assay, conditions: 10 μM preloading; Ca2+-free Locke's solution with 0.2 mM EGTA

| Compound | effect on peptide-induced [Ca2+]i increase |
| --- | --- |
| CC(=O)OCOC(=O)CN(CC(=O)OCOC(C)=O)c1ccccc1OCCOc1ccccc1N(CC(=O)OCOC(C)=O)CC(=O)OCOC(C)=O [BAPTA-AM, 1,2-bis(2-aminophenoxy)ethane-N,N,N′,N′-tetraacetoxymethyl ester] | completely abolished |

Same assay, conditions: 10 μM, 30 min preincubation; 1 μM SFKLRY-NH2

| Compound | effect on peptide-induced intracellular calcium mobilization |
| --- | --- |
| COc1ccc2c(c1)CC[C@@H]1[C@@H]2CC[C@]2(C)[C@@H](NCCCCCCN3C(=O)C=CC3=O)CC[C@@H]12 [U73122] | completely abolished |
| COc1ccc2c(c1)CC[C@@H]1[C@@H]2CC[C@]2(C)[C@@H](NCCCCCCN3C(=O)CCC3=O)CC[C@@H]12 [U73433] | little inhibitory effect |

System: Rat aortic explants
Assay: Aortic ring assay (vessel sprouting ex vivo)
Type: cell-based
Settings: 50 ng/mL co-treatment with SFKLRY-NH2 1 μM; 7 days
Protocol: The method developed by Nicosia and Ottinetti in In Vitro Cell Dev Biol 26 (1990), pp. 119-128 was used with some modifications. Aortas were harvested from 6-week-old Sprague-Dawley rats. After removing the surrounding fibro-adipose tissues, the rings were immersed in Matrigel in wells within culture dishes. The aortic rings were cultured (5% CO2, 37° C.) in serum-free M199 containing SFKLRY-NH2 (SEQ ID NO: 2), S1P, FYSRLK-NH2, or VEGF in the presence or absence of PTX or U73122. On day 7, sprouting from aortic explants was measured.
To address whether SFKLRY-NH2 (SEQ ID NO: 2) plays a role in sprouting of vascular endothelial cells ex vivo, aortic rings were analyzed in the presence of various stimuli including 1 μM SFKLRY-NH2 (SEQ ID NO: 2), 10 ng/mL VEGF, 10 nM S1P, and 10% FBS. […] Rat aortic explants in Matrigel were incubated with M-199 harboring SFKLRY-NH2 (SEQ ID NO: 2) (1 μM), FYSRLK-NH2 (1 μM), S1P (10 nM), VEGF (10 ng/mL), SFKLRY-NH2 (SEQ ID NO: 2) (1 μM) with U73122 (10 μM) or PTX (50 ng/mL), or 10% FBS and photographed after incubation for 7 days. Three independent experiments were then conducted, each in duplicate.

| Compound | effect on vessel sprouting promoted by SFKLRY-NH2 |
| --- | --- |
| Pertussis toxin [PTX] | markedly attenuated |

Same assay, conditions: 10 μM co-treatment with SFKLRY-NH2 1 μM; 7 days

| Compound | effect on vessel sprouting promoted by SFKLRY-NH2 |
| --- | --- |
| COc1ccc2c(c1)CC[C@@H]1[C@@H]2CC[C@]2(C)[C@@H](NCCCCCCN3C(=O)C=CC3=O)CC[C@@H]12 [U73122] | markedly attenuated |

System: MS-1 cells
Assay: [Ca2+]i mobilization assay in MS-1 cells
Type: cell-based, murine
Settings: three experiments, read-out: Mean EC50 (μM), dose-dependent changes in intracellular Ca2+
Protocol: Cells were incubated with 4 μM Fura-2 AM and 250 μM sulfinpyrazone in serum-free DMEM medium at 37° C. for 30 min with continuous stirring. The cells were then washed with Locke's solution (M. Faehling, et al., FASEB J 16 (2002), pp. 1805-1807) and diluted to 2×10^6 cells/mL. 50 μL aliquots of cell suspension were added to each well of a 96-well plate, and the change in fluorescence ratio was determined at dual excitation wavelengths of 340 and 380 nm and emission wavelength of 500 nm following addition of peptides. Plates were read immediately following the addition of peptide pools, resulting in a time delay of approximately 5 s between peptide addition and detection by the FLEXstation (Molecular Devices). Negative and positive controls were run simultaneously with test samples to ensure that all samples were subjected to identical conditions. The calibration of the fluorescence ratio in terms of [Ca^2+]i was performed according to Grynkiewicz et al. J Biol Chem 260 (1985), pp. 3440-3450.
To identify peptides that stimulate intracellular calcium mobilization in murine endothelial cells (MS-1 cells), the inventors screened 114 pools of C-terminally amidated synthetic hexapeptides.

| EC50 [µM] | Compound |
| --- | --- |
| 1.14 | CC(C)C[C@H](NC(=O)[C@H](CCCCN)NC(=O)[C@H](Cc1ccccc1)NC(=O)[C@@H](N)CO)C(=O)N[C@@H](CCCNC(=N)N)C(=O)N[C@H](Cc1ccc(O)cc1)C(N)=O [SEQ ID NO 8, SFKLRy-NH2(d-form)] (H-SFKLR[dY]-NH2; N-terminus assumed) |
| 6.19 | CC(C)C[C@H](NC(=O)[C@H](CCCCN)NC(=O)[C@H](Cc1ccccc1)NC(=O)[C@@H](N)CO)C(=O)N[C@@H](CCCNC(=N)N)C(N)=O [SEQ ID NO 12, SFKLR-NH2] (H-SFKLR-NH2; N-terminus assumed) |
| 0.97 | CC(C)C[C@H](NC(=O)[C@H](CCCNC(=N)N)NC(=O)[C@H](Cc1ccccc1)NC(=O)[C@@H](N)CO)C(=O)N[C@@H](CCCNC(=N)N)C(=O)N[C@@H](Cc1ccc(O)cc1)C(N)=O [SEQ ID NO 15, SFRLRY-NH2] (H-SFRLRY-NH2; N-terminus assumed) |
| 2.66 | CC(C)C[C@H](NC(=O)[C@H](CCCCN)NC(=O)[C@H](Cc1ccccc1)NC(=O)[C@@H](N)CO)C(=O)N[C@@H](CCCNC(=N)N)C(=O)N[C@@H](CCCNC(=N)N)C(N)=O [SEQ ID NO 16, SFKLRR-NH2] (H-SFKLRR-NH2; N-terminus assumed) |
| 0.97 | CC[C@H](C)[C@H](NC(=O)[C@H](Cc1ccccc1)NC(=O)[C@@H](N)CO)C(=O)N[C@@H](CC(C)C)C(=O)N[C@@H](CCCNC(=N)N)C(=O)N[C@@H](CCCNC(=N)N)C(N)=O [SEQ ID NO 18, SFILRR-NH2] (H-SFILRR-NH2; N-terminus assumed) |
| 1.98 | CC[C@H](C)[C@H](NC(=O)[C@H](Cc1ccccc1)NC(=O)[C@@H](N)CO)C(=O)N[C@@H](CC(C)C)C(=O)N[C@@H](CCCNC(=N)N)C(=O)N[C@@H](Cc1c[nH]c2ccccc12)C(N)=O [SEQ ID NO 20, SFILRW-NH2] (H-SFILRW-NH2; N-terminus assumed) |
| 2.01 | CC[C@H](C)[C@H](NC(=O)[C@H](Cc1ccccc1)NC(=O)[C@@H](N)CO)C(=O)N[C@@H](CC(C)C)C(=O)N[C@@H](CCCNC(=N)N)C(=O)N[C@@H](Cc1ccccc1)C(N)=O [SEQ ID NO 22, SFILRF-NH2] (H-SFILRF-NH2; N-terminus assumed) |
| 3.87 | CC(C)C[C@H](NC(=O)[C@H](CCCCN)NC(=O)[C@H](Cc1ccccc1)NC(=O)[C@@H](N)[C@@H](C)O)C(=O)N[C@@H](CCCNC(=N)N)C(=O)N[C@@H](Cc1ccc(O)cc1)C(N)=O [SEQ ID NO 24, TFKLRY-NH2] (H-TFKLRY-NH2; N-terminus assumed) |

The next lines start with the compound.

| Compound | EC50 [µM] |
| --- | --- |
| CC(C)C[C@H](NC(=O)[C@H](CCCCN)NC(=O)[C@H](Cc1ccccc1)NC(=O)[C@@H](N)CO)C(=O)N[C@@H](CCCNC(=N)N)C(=O)N[C@@H](Cc1ccc(O)cc1)C(=O)O [SEQ ID NO 1, SFKLRY-COOH] (H-SFKLRY-OH; N-terminus assumed) | > 10 |
| CC(C)C[C@H](NC(=O)[C@H](CCCCN)NC(=O)[C@H](Cc1ccccc1)NC(=O)[C@@H](N)CO)C(=O)N[C@@H](CCCNC(=N)N)C(=O)N[C@@H](Cc1ccc(O)cc1)C(N)=O [SEQ ID NO 2, SFKLRY-NH2] (H-SFKLRY-NH2; N-terminus assumed) | 1.21 |
| CC(C)C[C@H](NC(=O)[C@H](CCCCN)NC(=O)[C@H](Cc1ccccc1)NC(=O)[C@@H](N)CO)C(=O)N[C@H](CCCNC(=N)N)C(=O)N[C@@H](Cc1ccc(O)cc1)C(N)=O [SEQ ID NO 7, SFKLrY-NH2(d-form)] (H-SFKL[dR]Y-NH2; N-terminus assumed) | > 100 |
| CC(C)C[C@H](NC(=O)[C@H](CCCCN)NC(=O)[C@H](Cc1ccccc1)NC(=O)[C@@H](N)CO)C(N)=O [SEQ ID NO 13, SFKL-NH2] (H-SFKL-NH2; N-terminus assumed) | > 50 |
| CC[C@H](C)[C@H](NC(=O)[C@H](Cc1ccccc1)NC(=O)[C@@H](N)CO)C(=O)N[C@@H](CC(C)C)C(=O)N[C@@H](CCCNC(=N)N)C(=O)N[C@@H](Cc1ccc(O)cc1)C(N)=O [SEQ ID NO 17, SFILRY-NH2] (H-SFILRY-NH2; N-terminus assumed) | 0.99 |
| CC(C)C[C@H](NC(=O)[C@H](CCCCN)NC(=O)[C@H](Cc1ccccc1)NC(=O)[C@@H](N)CO)C(=O)N[C@@H](CCCNC(=N)N)C(=O)N[C@@H](Cc1c[nH]c2ccccc12)C(N)=O [SEQ ID NO 19, SFKLRW-NH2] (H-SFKLRW-NH2; N-terminus assumed) | 2.37 |
| CC(C)C[C@H](NC(=O)[C@H](CCCCN)NC(=O)[C@H](Cc1ccccc1)NC(=O)[C@@H](N)CO)C(=O)N[C@@H](CCCNC(=N)N)C(=O)N[C@@H](Cc1ccccc1)C(N)=O [SEQ ID NO 21, SFKLRF-NH2] (H-SFKLRF-NH2; N-terminus assumed) | 3.16 |
| CC(C)C[C@H](NC(=O)[C@H](CCCCN)NC(=O)[C@H](Cc1ccccc1)NC(=O)[C@@H](N)CO)C(=O)N[C@@H](CCCNC(=N)N)C(=O)N[C@@H](Cc1c[nH]cn1)C(N)=O [SEQ ID NO 23, SFKLRH-NH2] (H-SFKLRH-NH2; N-terminus assumed) | 3.6 |
